Source: article PMC7719157 (Pharmacology Research & Perspectives, 2020)

Assays:
PPARγ [1] = target: T1, PPARγ (Homo sapiens, UniProt P37231); test: TR-FRET coactivator; format: biochemical
T1 sequence (P37231 223-505 limits assumed): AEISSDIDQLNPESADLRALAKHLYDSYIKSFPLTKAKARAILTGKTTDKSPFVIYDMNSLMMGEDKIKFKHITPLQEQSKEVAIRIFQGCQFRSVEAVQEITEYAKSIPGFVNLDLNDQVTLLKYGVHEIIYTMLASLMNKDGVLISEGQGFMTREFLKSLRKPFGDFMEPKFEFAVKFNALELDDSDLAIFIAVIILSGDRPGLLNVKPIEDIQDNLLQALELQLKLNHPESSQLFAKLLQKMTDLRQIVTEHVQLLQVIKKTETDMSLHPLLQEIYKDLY

PPARα = target: T2, PPARα (Homo sapiens, UniProt Q07869); test: AlphaScreen coactivator; format: biochemical
T2 sequence (Q07869 196-468 limits assumed): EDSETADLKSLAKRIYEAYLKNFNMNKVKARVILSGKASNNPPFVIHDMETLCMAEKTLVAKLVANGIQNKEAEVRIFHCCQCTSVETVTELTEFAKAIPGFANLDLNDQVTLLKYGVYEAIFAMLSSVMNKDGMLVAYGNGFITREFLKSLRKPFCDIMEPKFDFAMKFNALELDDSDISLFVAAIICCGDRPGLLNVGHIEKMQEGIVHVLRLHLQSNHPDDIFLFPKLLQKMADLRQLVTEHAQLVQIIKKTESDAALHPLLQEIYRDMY

PPARγ [2] = target: T1, PPARγ; test: [3H]rosiglitazone radioligand displacement; format: binding
PPARδ = target: T3, PPARδ (Homo sapiens, UniProt Q03181); test: AlphaScreen coactivator; format: biochemical
T3 sequence (Q03181 171-441 limits assumed): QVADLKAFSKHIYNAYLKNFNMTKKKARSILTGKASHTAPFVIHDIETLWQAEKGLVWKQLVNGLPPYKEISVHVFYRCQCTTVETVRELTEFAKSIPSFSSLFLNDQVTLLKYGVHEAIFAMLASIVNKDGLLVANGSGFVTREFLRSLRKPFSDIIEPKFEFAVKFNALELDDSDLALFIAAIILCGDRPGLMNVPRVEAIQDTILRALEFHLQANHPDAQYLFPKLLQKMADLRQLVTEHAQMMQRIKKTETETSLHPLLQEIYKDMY

SMILES	IC50 (PPARγ [1])	IC50 (PPARα)	Ki (PPARγ [2])	IC50 (PPARδ)
O=C(Nc1ccccc1)c1cc([N+](=O)[O-])ccc1Cl [GW9662]	4.52 nM	–	–	–
CC(C)(C)c1ccc(-c2nc(CBr)nn2-c2cccc(O)c2)cc1 [MM902, 3‐(3‐(bromomethyl)‐5‐(4‐(tert‐butyl) phenyl)‐1H‐1,2,4‐triazol‐1‐yl) phenol]	–	46 µM	140 nM	48 µM
